# Experimental data taken from ChEMBL document CHEMBL5226390, “Synthesis and Structure-Activity Analysis of Icaritin Derivatives as Potential Tumor Growth Inhibitors of Hepatocellular Carcinoma Cells” (J Nat Prod, 2023).
# The source made the active and inactive calls. No cut-off for these calls is given here.
# What was measured:
# [1] = test system: HepG2; experiment: Induction of apoptosis in human HepG2 cells assessed as chromatin condensation and fragmentation at 2 to 8 uM incubated for 48 hrs by Hoechst 33258 staining based fluorescence microscopic analysis; format: functional, cell-based; conditions: dose 2-8 µM
# [2] = test system: SMMC-7721; experiment: Induction of apoptosis in human SMMC-7721 cells assessed as necrotic cells at 8 uM incubated for 48 hrs by AnnexinV-FITC/PI staining based flow cytometry (reference value: 12.3%); format: functional
# [3] = test system: SMMC-7721; experiment: Induction of cell cycle arrest in human SMMC-7721 cells assessed as accumulation of cells at S phase at 8 uM incubated for 48 hrs by PI staining based flow cytometry (reference value: 24.94%); format: functional
# [4] = test system: HepG2; experiment: Induction of apoptosis in human HepG2 cells assessed as necrotic cells at 8 uM incubated for 48 hrs by AnnexinV-FITC/PI staining based flow cytometry (reference value: 2.22%); format: functional
# [5] = test system: HepG2; experiment: Induction of apoptosis in human HepG2 cells assessed as late apoptotic cells at 4 uM incubated for 48 hrs by AnnexinV-FITC/PI staining based flow cytometry (reference value: 3.23%); format: functional
# [6] = test system: HepG2; experiment: Induction of cell cycle arrest in human HepG2 cells assessed as accumulation of cells at S phase at 4 uM incubated for 48 hrs by PI staining based flow cytometry (reference value: 18%); format: functional
# [7] = test system: HepG2; experiment: Induction of apoptosis in human HepG2 cells assessed as viable cells at 4 uM incubated for 48 hrs by AnnexinV-FITC/PI staining based flow cytometry (reference value: 91.1%); format: functional; conditions: read-out: Activity
# [8] = test system: SMMC-7721; experiment: Induction of cell cycle arrest in human SMMC-7721 cells assessed as upregulation of p21 protein expression at 2 to 8 uM incubated for 48 hrs by western blot analysis; format: functional, cell-based; conditions: dose 2-8 µM
# [9] = test system: HepG2; experiment: Induction of cell cycle arrest in human HepG2 cells assessed as upregulation of p21 protein expression at 2 to 8 uM incubated for 48 hrs by western blot analysis; format: functional, cell-based; conditions: dose 2-8 µM
# [10] = test system: HepG2; experiment: Induction of cell cycle arrest in human HepG2 cells assessed as downregulation of CDK4 protein expression at 2 to 8 uM incubated for 48 hrs by western blot analysis; format: functional, cell-based; conditions: dose 2-8 µM
# [11] = test system: HepG2; experiment: Induction of apoptosis in human HepG2 cells assessed as late apoptotic cells at 2 uM incubated for 48 hrs by AnnexinV-FITC/PI staining based flow cytometry (reference value: 3.23%); format: functional
# [12] = test system: SMMC-7721; experiment: Induction of apoptosis in human SMMC-7721 cells assessed as late apoptotic cells at 4 uM incubated for 48 hrs by AnnexinV-FITC/PI staining based flow cytometry (reference value: 1.51%); format: functional
# [13] = test system: SMMC-7721; experiment: Induction of cell cycle arrest in human SMMC-7721 cells assessed as accumulation of cells at G2/M phase at 4 uM incubated for 48 hrs by PI staining based flow cytometry (reference value: 15.49%); format: functional
# [14] = test system: HepG2; experiment: Induction of apoptosis in human HepG2 cells assessed as late apoptotic cells at 8 uM incubated for 48 hrs by AnnexinV-FITC/PI staining based flow cytometry (reference value: 3.23%); format: functional
# [15] = test system: HepG2; experiment: Potency index, ratio of Sorafenib IC50 to test compound IC50 for antiproliferative activity against human HepG2 cells; format: functional
# [16] = test system: HepG2; experiment: Induction of apoptosis in human HepG2 cells assessed as necrotic cells at 4 uM incubated for 48 hrs by AnnexinV-FITC/PI staining based flow cytometry (reference value: 2.22%); format: functional
# [17] = test system: SMMC-7721; experiment: Induction of apoptosis in human SMMC-7721 cells assessed as viable cells at 2 uM incubated for 48 hrs by AnnexinV-FITC/PI staining based flow cytometry (reference value: 85.1%); format: functional; conditions: read-out: Activity
# [18] = test system: HepG2; experiment: Induction of cell cycle arrest in human HepG2 cells assessed as downregulation of p34 protein expression at 2 to 8 uM incubated for 48 hrs by western blot analysis; format: functional, cell-based; conditions: dose 2-8 µM
# [19] = test system: SMMC-7721; experiment: Induction of apoptosis in human SMMC-7721 cells assessed as late apoptotic cells at 8 uM incubated for 48 hrs by AnnexinV-FITC/PI staining based flow cytometry (reference value: 1.51%); format: functional
# [20] = test system: HepG2; experiment: Induction of cell cycle arrest in human HepG2 cells assessed as accumulation of cells at G2/M phase at 8 uM incubated for 48 hrs by PI staining based flow cytometry (reference value: 17.89%); format: functional
# [21] = test system: SMMC-7721; experiment: Induction of apoptosis in human SMMC-7721 cells assessed as necrotic cells at 4 uM incubated for 48 hrs by AnnexinV-FITC/PI staining based flow cytometry (reference value: 12.3%); format: functional
# [22] = test system: SMMC-7721; experiment: Induction of apoptosis in human SMMC-7721 cells assessed as early apoptotic cells at 4 uM incubated for 48 hrs by AnnexinV-FITC/PI staining based flow cytometry (reference value: 1.13%); format: functional
# [23] = test system: HepG2; experiment: Induction of cell cycle arrest in human HepG2 cells assessed as accumulation of cells at S phase at 8 uM incubated for 48 hrs by PI staining based flow cytometry (reference value: 18%); format: functional
# [24] = Solubility of the compound in water incubated for 24 hrs under stirring conditions by HPLC analysis; format: physicochemical
# [25] = test system: SMMC-7721; experiment: Induction of apoptosis in human SMMC-7721 cells assessed as viable cells at 4 uM incubated for 48 hrs by AnnexinV-FITC/PI staining based flow cytometry (reference value: 85.1%); format: functional; conditions: read-out: Activity
# [26] = test system: SMMC-7721; experiment: Induction of cell cycle arrest in human SMMC-7721 cells assessed as accumulation of cells at G0/G1 phase at 8 uM incubated for 48 hrs by PI staining based flow cytometry (reference value: 59.57%); format: functional
# [27] = test system: SMMC-7721; experiment: Induction of apoptosis in human SMMC-7721 cells assessed as late apoptotic cells at 2 uM incubated for 48 hrs by AnnexinV-FITC/PI staining based flow cytometry (reference value: 1.51%); format: functional
# [28] = test system: SMMC-7721; experiment: Potency index, ratio of Sorafenib IC50 to test compound IC50 for antiproliferative activity against human SMMC-7721 cells; format: functional
# [29] = test system: SMMC-7721; experiment: Induction of apoptosis in human SMMC-7721 cells assessed as necrotic cells at 2 uM incubated for 48 hrs by AnnexinV-FITC/PI staining based flow cytometry (reference value: 12.3%); format: functional
# [30] = test system: SMMC-7721; experiment: Induction of cell cycle arrest in human SMMC-7721 cells assessed as accumulation of cells at G2/M phase at 2 uM incubated for 48 hrs by PI staining based flow cytometry (reference value: 15.49%); format: functional
# [31] = test system: HepG2; experiment: Induction of apoptosis in human HepG2 cells assessed as viable cells at 2 uM incubated for 48 hrs by AnnexinV-FITC/PI staining based flow cytometry (reference value: 91.1%); format: functional; conditions: read-out: Activity
# [32] = test system: SMMC-7721; experiment: Induction of cell cycle arrest in human SMMC-7721 cells assessed as downregulation of Cdc2 protein expression at 2 to 8 uM incubated for 48 hrs by western blot analysis; format: functional, cell-based; conditions: dose 2-8 µM
# [33] = test system: HepG2; experiment: Induction of cell cycle arrest in human HepG2 cells assessed as accumulation of cells at G0/G1 phase at 8 uM incubated for 48 hrs by PI staining based flow cytometry (reference value: 64.11%); format: functional
# [34] = test system: HepG2; experiment: Induction of apoptosis in human HepG2 cells assessed as early apoptotic cells at 8 uM incubated for 48 hrs by AnnexinV-FITC/PI staining based flow cytometry (reference value: 3.41%); format: functional
compound,measurement,setting,value
COc1ccc(-c2oc3c(CC=C(C)C)c(OCCN4CCCC4)cc(O)c3c(=O)c2O[C@H]2O[C@H](C)[C@@H](O)[C@H](O)[C@@H]2O)cc1,Activity,[1],Active
same,Activity,[2],22.1%
same,Activity,[3],12.47%
same,Activity,[4],16.7%
same,Activity,[5],5.47%
same,Activity,[6],9.28%
same,viability at 4 µM,[7],86.2%
same,Activity,[8],Active
same,Activity,[9],Active
same,Activity,[10],Active
same,Activity,[11],6.26%
same,Activity,[12],6.92%
same,Activity,[13],14.83%
same,Activity,[14],17.7%
same,Ratio IC50,[15],2
same,Activity,[16],3.21%
same,viability at 2 µM,[17],89.4%
same,Activity,[18],Active
same,Activity,[19],8.46%
same,Activity,[20],6.39%
same,Activity,[21],0.956%
same,Activity,[22],2.54%
same,Activity,[23],2.47%
same,solubility at 24 h,[24],11.8 mg/mL
same,viability at 4 µM,[25],89.6%
same,Activity,[26],78.65%
same,Activity,[27],5.9%
same,Ratio IC50,[28],2
same,Activity,[29],2.96%
same,Activity,[30],13.29%
same,viability at 2 µM,[31],83.3%
same,Activity,[32],Active
same,Activity,[33],91.15%
same,Activity,[34],3.42%
